# Test results reported in US20250026778A1 (TIUMBIO CO., LTD., priority 2021, published 2025).
# Biological target: T1, his-galectin-3 (Homo sapiens, UniProt P17931)
# T1 construct: purchased Abcam
# Experiment: TR-FRET assay (in vitro galectin-3 binding inhibitory activity test)
# Conditions: Table 1; compound at 20 μM; 60 nM his-galectin-3, 15 nM biotin-ASF; read-out: % Inhibitory activity (at 20 μM)
# Method: TR-FRET Assay (In Vitro Galectin-3 Binding Inhibitory Activity Test)
# TR-FRET assay was performed in ½ Area Plate-96 (PerkinElmer). Final concentrations of components in the assay were 60 nM his-galectin-3 (Abcam), 15 nM biotin-ASF (Axxora), 2 nM Mab anti-6×His Tb (Cisbio) and 20 nM SA-d2 (Cisbio). The reaction was performed in a buffer containing 25 mM HEPES, 100 mM NaCl, 0.005% Tween 20 and 0.05% BSA. 20 μL his-galectin-3 and 1 μL compound were mixed first, and then 20 μL biotin-ASF, 5 μL anti-His Tb and 5 μL SA-d2 were added in order. After incubation for at least 3.5 hours at RT, TR-FRET signals were measured at 615/665 nm […] wavelengths using a VICTOR Nivo (PerkinElmer). The positive control used DMSO instead of the compound, and the negative control excluded ASF-biotin. N-acetyl-D-lactosamine (LacNAc), an endogenous ligand unit of galectin-3, was evaluated together as a control substance to compare galectin-3 binding inhibitory activity.
# T1 sequence (P17931 whole entry): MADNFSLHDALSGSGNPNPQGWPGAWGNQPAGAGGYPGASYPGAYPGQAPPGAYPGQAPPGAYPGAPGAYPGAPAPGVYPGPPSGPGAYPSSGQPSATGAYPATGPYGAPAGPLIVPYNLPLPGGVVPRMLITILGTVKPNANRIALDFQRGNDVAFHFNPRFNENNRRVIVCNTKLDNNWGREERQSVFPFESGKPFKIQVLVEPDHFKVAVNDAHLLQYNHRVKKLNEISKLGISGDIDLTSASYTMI
row,inhibition at 20 µM [%],Structure (SMILES)
1,25 to 50,"OC[C@H]1O[C@@]2(CCCO2)[C@H](OCc2ccccc2O)[C@@H](n2cc(-c3cc(F)c(F)c(F)c3)nn2)[C@H]1O [Compound A37, (5S,7R,8R,9S,10R)-10-((2-hydroxybenzyl)oxy)-7-(hydroxymethyl)-9-(4-(3,4,5-trifluorophenyl)-1H-1,2,3-triazol-1-yl)-1,6-dioxaspiro[4.5]decan-8-ol]"
2,25 to 50,"OC[C@H]1O[C@@]2(CCCO2)[C@H](OCc2cccc(O)c2)[C@@H](n2cc(-c3cc(F)c(F)c(F)c3)nn2)[C@H]1O [Compound A38, (5S,7R,8R,9S,10R)-10-((3-hydroxybenzyl)oxy)-7-(hydroxymethyl)-9-(4-(3,4,5-trifluorophenyl)-1H-1,2,3-triazol-1-yl)-1,6-dioxaspiro[4.5]decan-8-ol]"
3,50 to 75,"O=C(O[C@@H]1[C@@H](n2cc(-c3cc(F)c(F)c(F)c3)nn2)[C@@H](O)[C@@H](CO)O[C@@]12CCCO2)c1cccc(F)c1 [Compound A39, (5S,7R,8R,9S,10R)-8-hydroxy-7-(hydroxymethyl)-9-(4-(3,4,5-trifluorophenyl)-1H-1,2,3-triazol-1-yl)-1,6-dioxaspiro[4.5]decan-10-yl 3-fluorobenzoate]"
4,25 to 50,"COc1cccc(C(=O)O[C@@H]2[C@@H](n3cc(-c4cc(F)c(F)c(F)c4)nn3)[C@@H](O)[C@@H](CO)O[C@@]23CCCO3)c1 [Compound A40, (5S,7R,8R,9S,10R)-8-hydroxy-7-(hydroxymethyl)-9-(4-(3,4,5-trifluorophenyl)-1H-1,2,3-triazol-1-yl)-1,6-dioxaspiro[4.5]decan-10-yl 3-methoxybenzoate]"
5,25 to 50,"OC[C@H]1O[C@@]2(CCCCO2)[C@H](OCc2ccc3c(c2)OCO3)[C@@H](n2cc(-c3cc(F)c(F)c(F)c3)nn2)[C@H]1O [Compound A44, (2R,3R,4S,5R,6S)-5-(benzo[d][1,3]dioxol-5-ylmethoxy)-2-(hydroxymethyl)-4-(4-(3,4,5-trifluorophenyl)-1H-1,2,3-triazol-1-yl)-1,7-dioxaspiro[5.5]undecan-3-ol]"
6,50 to 75,"OC[C@H]1O[C@@]2(CCCCO2)[C@H](OCc2nn[nH]n2)[C@@H](n2cc(-c3cc(F)c(F)c(F)c3)nn2)[C@H]1O [Compound A45, (2R,3R,4S,5R,6S)-5-((2H-tetrazol-5-yl)methoxy)-2-(hydroxymethyl)-4-(4-(3,4,5-trifluorophenyl)-1H-1,2,3-triazol-1-yl)-1,7-dioxaspiro[5.5]undecan-3-ol]"
7,25 to 50,"OC[C@H]1O[C@@]2(CCCCO2)[C@H](OCC(F)F)[C@@H](n2cc(-c3cc(F)c(F)c(F)c3)nn2)[C@H]1O [Compound A46, (2R,3R,4S,5R,6S)-5-(2,2-difluoroethoxy)-2-(hydroxymethyl)-4-(4-(3,4,5-trifluorophenyl)-1H-1,2,3-triazol-1-yl)-1,7-dioxaspiro[5.5]undecan-3-ol]"
8,25 to 50,"OC[C@H]1O[C@@]2(CCCCO2)[C@H](OCc2ccccc2O)[C@@H](n2cc(-c3cc(F)c(F)c(F)c3)nn2)[C@H]1O [Compound A47, (2R,3R,4S,5R,6S)-5-((2-hydroxybenzyl)oxy)-2-(hydroxymethyl)-4-(4-(3,4,5-trifluorophenyl)-1H-1,2,3-triazol-1-yl)-1,7-dioxaspiro[5.5]undecan-3-ol]"
9,25 to 50,"OC[C@H]1O[C@@]2(CCCCO2)[C@H](OCc2cccc(F)c2)[C@@H](n2cc(-c3cc(F)c(F)c(F)c3)nn2)[C@H]1O [Compound A48, (2R,3R,4S,5R,6S)-5-((3-fluorobenzyl)oxy)-2-(hydroxymethyl)-4-(4-(3,4,5-trifluorophenyl)-1H-1,2,3-triazol-1-yl)-1,7-dioxaspiro[5.5]undecan-3-ol]"
10,25 to 50,"OC[C@H]1O[C@@]2(CCCCO2)[C@H](OCc2cccc(C(F)(F)F)c2)[C@@H](n2cc(-c3cc(F)c(F)c(F)c3)nn2)[C@H]1O [Compound A49, (2R,3R,4S,5R,6S)-2-(hydroxymethyl)-5-((3-(trifluoromethyl)benzyl)oxy)-4-(4-(3,4,5-trifluorophenyl)-1H-1,2,3-triazol-1-yl)-1,7-dioxaspiro[5.5]undecan-3-ol]"
11,25 to 50,"OC[C@H]1O[C@@]2(CCCCO2)[C@H](OCc2ccccn2)[C@@H](n2cc(-c3cc(F)c(F)c(F)c3)nn2)[C@H]1O [Compound A50, (2R,3R,4S,5R,6S)-2-(hydroxymethyl)-5-(pyridin-2-ylmethoxy)-4-(4-(3,4,5-trifluorophenyl)-1H-1,2,3-triazol-1-yl)-1,7-dioxaspiro[5.5]undecan-3-ol]"
12,25 to 50,"O=C(O[C@@H]1[C@@H](n2cc(-c3cc(F)c(F)c(F)c3)nn2)[C@@H](O)[C@@H](CO)O[C@@]12CCCCO2)c1cccc(F)c1 [Compound A51, (2R,3R,4S,5R,6S)-3-hydroxy-2-(hydroxymethyl)-4-(4-(3,4,5-trifluorophenyl)-1H-1,2,3-triazol-1-yl)-1,7-dioxaspiro[5.5]undecan-5-yl 3-fluorobenzoate]"
13,< 25,"O=C(O[C@@H]1[C@@H](n2cc(-c3cc(F)c(F)c(F)c3)nn2)[C@@H](O)[C@@H](CO)O[C@@]12CCCCO2)c1cccc(C(F)(F)F)c1 [Compound A52, (2R,3R,4S,5R,6S)-3-hydroxy-2-(hydroxymethyl)-4-(4-(3,4,5-trifluorophenyl)-1H-1,2,3-triazol-1-yl)-1,7-dioxaspiro[5.5]undecan-5-yl 3-(trifluoromethyl)benzoate]"
14,25 to 50,"COc1cccc(C(=O)O[C@@H]2[C@@H](n3cc(-c4cc(F)c(F)c(F)c4)nn3)[C@@H](O)[C@@H](CO)O[C@@]23CCCCO3)c1 [Compound A53, (2R,3R,4S,5R,6S)-3-hydroxy-2-(hydroxymethyl)-4-(4-(3,4,5-trifluorophenyl)-1H-1,2,3-triazol-1-yl)-1,7-dioxaspiro[5.5]undecan-5-yl 3-methoxybenzoate]"
15,< 25,"N[C@@H]1CCO[C@]12O[C@H](CO)[C@H](O)[C@H](n1cc(-c3cc(F)c(F)c(F)c3)nn1)[C@H]2O [Compound A56, (4R,5S,7R,8R,9S,10R)-4-amino-7-(hydroxymethyl)-9-(4-(3,4,5-trifluorophenyl)-1H-1,2,3-triazol-1-yl)-1,6-dioxaspiro[4.5]decane-8,10-diol]"
16,25 to 50,"OC[C@H]1O[C@@]2(CCCCO2)[C@H](OCc2cccnc2)[C@@H](n2cc(-c3cc(F)c(F)c(F)c3)nn2)[C@H]1O [Compound A58, (2R,3R,4S,5R,6S)-2-(hydroxymethyl)-5-(pyridin-3-ylmethoxy)-4-(4-(3,4,5-trifluorophenyl)-1H-1,2,3-triazol-1-yl)-1,7-dioxaspiro[5.5]undecan-3-ol]"
17,< 25,"O=C(N[C@@H]1CCO[C@]12O[C@H](CO)[C@H](O)[C@H](n1cc(-c3cc(F)c(F)c(F)c3)nn1)[C@H]2O)c1cccc(F)c1 [Compound A60, N-((4R,5S,7R,8R,9S,10R)-8,10-dihydroxy-7-(hydroxymethyl)-9-(4-(3,4,5-trifluorophenyl)-1H-1,2,3-triazol-1-yl)-1,6-dioxaspiro[4.5]decan-4-yl)-3-fluorobenzamide]"

# Same assay, conditions: Table 3, found values; compound at 20 μM; 60 nM his-galectin-3, 15 nM biotin-ASF; read-out: % Inhibitory activity (at 20 μM)
row,inhibition at 20 µM [%],Structure (SMILES)
1,43.7,"OC[C@H]1O[C@@]2(CCCCO2)[C@H](OCc2cccc(F)c2)[C@@H](n2cc(-c3cc(F)c(F)c(F)c3)nn2)[C@H]1O [Compound A48, (2R,3R,4S,5R,6S)-5-((3-fluorobenzyl)oxy)-2-(hydroxymethyl)-4-(4-(3,4,5-trifluorophenyl)-1H-1,2,3-triazol-1-yl)-1,7-dioxaspiro[5.5]undecan-3-ol]"

# Same assay, conditions: read-out: % Inhibitory activity (at 20 μM), Table 1; compound at 20 μM; 60 nM his-galectin-3, 15 nM biotin-ASF
row,Structure (SMILES),inhibition at 20 µM [%]
1,"O=C(O[C@H]1[C@@H](n2cc(-c3cc(F)c(F)c(F)c3)nn2)[C@@H](O)[C@@H](CO)O[C@@]12CCCO2)c1ccccc1 [Compound A42, (5S,7R,8R,9S,10S)-8-hydroxy-7-(hydroxymethyl)-9-(4-(3,4,5-trifluorophenyl)-1H-1,2,3-triazol-1-yl)-1,6-dioxaspiro[4.5]decan-10-yl benzoate]",< 25
2,"O=C(O)CO[C@@H]1[C@@H](n2cc(-c3cc(F)c(F)c(F)c3)nn2)[C@@H](O)[C@@H](CO)O[C@@]12CCCCO2 [Compound A54, 2-(((2R,3R,4S,5R,6S)-3-hydroxy-2-(hydroxymethyl)-4-(4-(3,4,5-trifluorophenyl)-1H-1,2,3-triazol-1-yl)-1,7-dioxaspiro[5.5]undecan-5-yl)oxy)acetic acid]",25 to 50
3,"CC(O[C@@H]1[C@@H](n2cc(-c3cc(F)c(F)c(F)c3)nn2)[C@@H](O)[C@@H](CO)O[C@@]12CCCCO2)C(=O)O (stereo partly drawn) [Compound A55, 2-(((2R,3R,4S,5R,6S)-3-hydroxy-2-(hydroxymethyl)-4-(4-(3,4,5-trifluorophenyl)-1H-1,2,3-triazol-1-yl)-1,7-dioxaspiro[5.5]undecan-5-yl)oxy)propanoic acid]",50 to 75
4,O=C(O[C@@H]1[C@@H](n2cc(-c3cc(F)c(F)c(F)c3)nn2)[C@@H](O)[C@@H](CO)O[C@@]12CCCCO2)c1ccccn1 [Compound A57],50 to 75
5,"Cc1ccc(S(=O)(=O)O[C@@H]2[C@@H](n3cc(-c4cc(F)c(F)c(F)c4)nn3)[C@@H](O)[C@@H](CO)O[C@@]23CCCO3)cc1 [Compound A59, (5S,7R,8R,9S,10R)-8-hydroxy-7-(hydroxymethyl)-9-(4-(3,4,5-trifluorophenyl)-1H-1,2,3-triazol-1-yl)-1,6-dioxaspiro[4.5]decan-10-yl 4-methylbenzenesulfonate]",25 to 50

# Same assay, conditions: read-out: % Inhibitory activity (at 20 μM), Table 3, found values; compound at 20 μM; 60 nM his-galectin-3, 15 nM biotin-ASF
row,Structure (SMILES),inhibition at 20 µM [%]
1,"CC(O[C@@H]1[C@@H](n2cc(-c3cc(F)c(F)c(F)c3)nn2)[C@@H](O)[C@@H](CO)O[C@@]12CCCCO2)C(=O)O (stereo partly drawn) [Compound A55, 2-(((2R,3R,4S,5R,6S)-3-hydroxy-2-(hydroxymethyl)-4-(4-(3,4,5-trifluorophenyl)-1H-1,2,3-triazol-1-yl)-1,7-dioxaspiro[5.5]undecan-5-yl)oxy)propanoic acid]",60
